Data on two molecules can be found in patent publication US6346514B1, “Pharmaceutical lysine-containing polypeptide compositions and methods of use thereof” (priority 1991, dated 2002).

Test [1] relates to methicillin resistant Staphylococcus aureus. The conditions noted are these: methicillin-resistant S. aureus (MR); s.c. in the hour subsequent to inoculation; previous studies; cited from earlier work.
The subject of test [2] is methicillin-resistant S. aureus. The conditions noted are these: S. aureus (MR); s.c. in the hour subsequent to inoculation; cited from earlier work.
Test [3] has as its system methicillin resistant Staphylococcus aureus. As to the kind of experiment: Survival of mice inoculated with 10xLD50 S. aureus, EK pretreatment with or without Ampicillin. The class given is in vivo. Here is the method:
Animals were inoculated intraperitoneally with 10×LD50 of a Staphylococcus aureus suspended in brain-heart infusion broth containing 5 percent mucin. […] If significant prevention of mortality (>50 percent survival) was observed, the minimum effective dose (MED) was determined.
Two control experiments were initially conducted. […] No antibiotic was administered to this group. The number of survivors at 72 hours was determined. […] The number of survivors at 72 hours was recorded.
Survival statistics were determined over the periods of 12, 24, 36, 48, and 72 hours. […] Survival statistics were determined over the periods 12, 23,36, 48, and 72 hours. FIG. 1 illustrates the experimental protocol.

In test [4] the test system is microbial growth. As to the kind of experiment: Bacterial culture experiments with EK. The conditions noted are these: concentrations exceeding 1000 times the administered dose to animals. The class given is cell-based.
The mark [5] stands for this setting: 12 HOURS after inoculation, EK 10 mcg/kg.
Where [6] appears, read: 12 HOURS after inoculation, EK 100 mcg/kg.
Setting [7] is: 12 HOURS after inoculation, EK 1000 mcg/kg.
Setting [8] is: 24 HOURS after inoculation, EK 10 mcg/kg.
Where [9] appears, read: 24 HOURS after inoculation, EK 100 mcg/kg.
Setting [10] is: 24 HOURS after inoculation, EK 1000 mcg/kg.
The mark [11] stands for this setting: 36 HOURS after inoculation, EK 10 mcg/kg.
Setting [12] is: 36 HOURS after inoculation, EK 100 mcg/kg.
Where [13] appears, read: 36 HOURS after inoculation, EK 1000 mcg/kg.
[14] abbreviates: 48 HOURS after inoculation, EK 10 mcg/kg.
The mark [15] stands for this setting: 48 HOURS after inoculation, EK 100 mcg/kg.
Setting [16] is: 48 HOURS after inoculation, EK 1000 mcg/kg.
The mark [17] stands for this setting: 72 HOURS after inoculation, EK 10 mcg/kg.
[18] abbreviates: 72 HOURS after inoculation, EK 100 mcg/kg.
The mark [19] stands for this setting: 72 HOURS after inoculation, EK 1000 mcg/kg.

On to `CC1(C)S[C@@H]2[C@H](NC(=O)[C@H](N)c3ccccc3)C(=O)N2[C@H]1C(=O)O` [Amp, Ampicillin], for which the “MED (minimum effective dose)” value in test [1] and in test [2] was “greater than 100 mg/kg” in each case.
Consider Glu-Lys [EK], for which the Deaths in test [3] (setting [5]) was 0; in test [3] (setting [6]), 2; in test [3] (setting [7]), 1; in test [3] (setting [8]), 5; in test [3] (setting [9]), 5; in test [3] (setting [10]), 1. Also, the Deaths turned out to be 9 in test [3] (setting [11]); 9 in test [3] (setting [12]); 4 in test [3] (setting [13]); 13 in test [3] (setting [14]); 13 in test [3] (setting [15]); 10 in test [3] (setting [16]). Besides, the Deaths in test [3] (setting [17]) was determined as 13; in test [3] (setting [18]), 13; in test [3] (setting [19]) it was 11. For the same molecule, the Survival is on record as 100.00% in test [3] (setting [5]); 88.89% in test [3] (setting [6]); 94.44% in test [3] (setting [7]); 72.22% in test [3] (setting [8]); 72.22% in test [3] (setting [9]); 94.44% in test [3] (setting [10]). In addition, the Survival in test [3] (setting [11]) is listed as 50.00%; in test [3] (setting [12]) it was 50.00%; in test [3] (setting [13]), 77.78%; in test [3] (setting [16]), 44.44%; in test [3] (setting [19]), 38.89%; in test [3] (at 36 hours, across EK dose groups), no more than 78%. Also, the “Survival” value in test [3] (by 72 hours, across EK dose groups) was “at least 27%”. Also, the Survivors was determined as 18 in test [3] (setting [5]); 16 in test [3] (setting [6]); 17 in test [3] (setting [7]); 13 in test [3] (setting [8]); 13 in test [3] (setting [9]); 17 in test [3] (setting [10]). Also, the Survivors stood at 9 in test [3] (setting [11]); 9 in test [3] (setting [12]); 14 in test [3] (setting [13]); 5 in test [3] (setting [14]); 5 in test [3] (setting [15]); 8 in test [3] (setting [16]). Besides, the figures for the Survivors in test [3] (setting [17]), in test [3] (setting [18]) and in test [3] (setting [19]) were 5, 5 and 7, respectively. In addition, the “survival after normally lethal i.p. dose of S. aureus” value in test [3] (EK pretreatment) is on record as “dramatic improvement in survival”. For the same molecule, the “activity on microbial growth” value in test [4] was “no inhibitory nor suppressive activity”.
